Measurements: US12065468B2, “Heme-binding small peptide” (priority 2021, dated 2024)
“Also recorded” adds a separate entry of the source.

Experiments:
[1] = Biolayer interferometry of heme binding
Text: Biotinylation of heme: Hemin was biotinylated using the method exactly as described previouslyl^16. Biotin hydrazide, DCC was purchased from Sigma. COSMOSIL™ 5C18-AR-II Packed Column, 4.6 mm I.D.×150 mm from Nacalai USA (San Diego, CA) was used to separate the products. LC-MS was used to verify the correct molecular weight (969.4 Da) of biotinylated heme (in which only one of the two propionate groups of protoheme was conjugated with biotin hydrazide) as described above.
Biolayer interferometry: Biolayer interferometry was carried out using a ForteBio Octet RED96™ biolayer interferometer, following the manufacturer's instructions for a standard kinetic assay. Streptavidin-coated biosensor tips were incubated in 200 μl assay buffer (Water [pH 7.4]), each for 60s. Then biotinylated heme (or NCR247 in the case of Fe(III) PPIX dimethyl ester chloride) was loaded onto each biosensor tip at the defined concentration until the binding signal reached a value of >1.4. Biosensor tip loading was followed by incubation in assay buffer for 60s. Association between the ligand-heme and the analyte-various variants of NCR247 (Increasing concentrations in assay buffer) was observed over a time frame of ˜116 s, in assay buffer. To stop binding kinetics for dissociation, the biosensor tips were placed back into assay buffer not containing any analyte, for 120 s. Curves were fit with Global fit analysis and Data analysis and KD calculation was performed using Fortebio™ data analyses 8.2 software as described previously^89.

[2] = UV-Vis spectroscopy / colour change on heme addition; format: binding
Method: Heme preparation: Hemin solutions were always prepared in 0.1 M NaOH and used within 30 min of preparation. 1:1000 and 1:500 dilution of the stock solution was made and stock concentration was measured by pyridine hemochrome assay as described previously^85 by measuring the absorption at 557 nm using the extinction coefficient of pyridine hemochromogen (34.7 mM^−1 cm^−1).
UV-VIS spectroscopy: All absorption spectra were collected in a Tecan Spark™ 10 M microplate reader using black polystyrene 96-well plates. Absorbance from 300 nm to 700 nm was recorded with a 5 nm interval after an initial shaking at 100 rpm for 15 secs. Heme binding to synthesized peptide: Water (pH 7.4) was used in all reactions and was first added to the wells. Peptides solubilized in water were added and then heme solubilized in 0.1 M NaOH was added, mixed thoroughly and measurements were taken immediately. Peptide and heme volume were kept to a maximum of 5 ul in volume. For all the absorption curves (except Extended FIG. 3a) […] was used. The same was also repeated with 0.1 M Tris buffer (pH 7.4) as a base buffer instead of water.

Haemophilus influenzae = test: Cell viability assay for H. influenzae; format: cell-based; settings: 24 hours, BHI with 7.5 μM hemin
Method: Cell viability assays for H. influenza and P. gingivalis: Haemophilus influenzae Rd [KW20] was obtained from ATCC (51907). Standard growth and culturing techniques were followed as described previously^92. Cultures were grown in Brain Heart Infusion broth (BHI) supplemented with 7.5 μM of hemin and 2 μg/ml NAD with or without the addition of peptide for 24 hours. The number of viable cells for every reaction mixture was then determined by serially diluting and spotting 10-μl aliquots in triplicates on BHI agar plates supplemented with 15 μM hemin and 3 μM NAD. Porphyromonas gingivalis 2561 was obtained from ATCC (33277). Pre-reduced, anaerobically sterilized Brucella Broth and BRU—Brucella Blood Agar—were purchased from Anaerobe systems (CA, USA). They were opened just before use. Static cultures and plates were incubated at 37° C. in an incubation chamber from BD GasPak™ EZ Container Systems. Anaerobic conditions were maintained by using BD BBL CO2 gas generators and BD BB GasPak™ CO2 indicators. Cultures were grown anaerobically in Brucella Broth with or without addition of peptides for 48 hours and viable cells for every reaction mixture were then determined by serially diluting and spotting 10-μ1 aliquots in triplicates on Brucella Blood Agar.

HEK-293 = test: Cytotoxic activity assay (MTT); format: cell-based, Human; settings: 100 μM, 24 h, listed as L-NCR247
Method: Cytotoxic activity assay: Human embryonic kidney (HEK-293-ATCC-CRL-1573) cell lines were cultured in Dulbecco's Modified Eagle Medium (DMEM) supplemented with 10% Fetal Bovine Serum (FBS). When cells reached 10^4-10^5 cells per well, cells were supplemented with fresh DMEM without FBS, and then treated with 100 μM of NCR247 (L and D). After treatment for 24 h, MTT (Abeam, United Kingdom) stock solution was added to each well at a final concentration of 500 μg/mL and incubated in the dark for 4 h at 37° C. The absorbance at 570 nm was measured in the Tecan plate reader.

Aβ (1-42)-heme complex = molecular target: T1, Aβ (1-42)-heme complex (Homo sapiens, UniProt P05067); test: Peroxidase assay of Aβ-heme complex on TMB; format: biochemical; settings: equimolar addition of NCR247
T1 construct: equimolar addition of NCR247 to the Aβ (1-42) amyloid peptide-heme complex; purchased Genscript

Caenorhabditis elegans = test: C. elegans growth; settings: in vivo
Text: When grown in the lab, the widely-studied model nematode Caenorhabditis elegans normally acquires heme by ingesting bacteria and breaking them down to release heme. […] A new class of heme importer was identified in C. elegans by analyzing heme-responsive proteins and orthologs have been subsequently identified in other parasites such as the kinetoplastid parasite discussed above.

S. meliloti = test: Cell cycle progression by flow cytometry on synchronized cultures; format: cell-based, Sinorhizobium meliloti; settings: synchronized culture, 4 uM; listed as L-NCR247
Text: FIG. 14. […] Cell cycle progression analysis using flow cytometry on synchronized cultures of Wild type S. meliloti and bacA mutant of S. meliloti treated with L or D-NCR247 when compared to untreated cells. Dark grey represents percentage of cells with 1 copy of genome and light grey represents percentage of cells with 2 copies of genomes. […] Data are presented as average of three biological replicates.
Since NCR247 treatment leads to gene expression change in several genes of the CtrA regulon, we investigated the CtrA regulon and the cell division inhibition role of NCR247. […] In addition, this phenotype is retained in a peptide transporter bacA mutant indicating cell division inhibition happens due to protein-peptide interaction outside the cytoplasm.

ribosomal machinery = test: In-vitro translation assay, GFP production; format: biochemical; settings: increasing concentrations; fluorescence and western blot; listed as L-NCR247
Text: FIG. 19. Interaction of NCR247 with ribosomal machinery leads to modification in translational capability. (A) In-vitro translation assay to measure GFP production with increasing concentrations of L or D-NCR247. […] (B) Western blot to measure the amount of GFP produced using Anti-GFP antibody.
Interaction of NCR247 with ribosomal machinery leads to modification in translational capability. To see if this is due to chiral interaction, we performed in-vitro translation assay and used GFP production and measured fluorescence as a read out. We also performed a western blot to measure the amount of GFP produced using Anti-GFP antibody.

T1 sequence (P05067 672-713 limits assumed, one chain of several): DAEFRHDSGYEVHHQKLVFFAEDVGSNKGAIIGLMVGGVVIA

Sequence: RNGCIVDPRCPYQQCRRPLYCRRR [NCR247]
- Kd ([1]; biotinylated heme as ligand, peptide as analyte): ~1 nM
- heme binding affinity, in words ([1]; compared with NCR247 (L-enantiomer)): binds heme with nanomolar affinity
- heme binding (absorption peaks 366 nm, ~450 nm; colour change) ([2]; heme added to peptide, ferric heme): bound within seconds; also recorded: binds heme
- binding of ferrous heme ([2]; sodium dithionite-reduced Fe(II) heme): binds sodium dithionite-reduced Fe(II) ferrous heme
- growth / viable cell number of H. influenzae (Haemophilus influenzae): can prevent the growth; also recorded: can block the growth
- growth / viable cell number of H. influenzae (Haemophilus influenzae; listed as L-NCR247): Reduction of viable cell number
- cytotoxicity (HEK-293): negligible cytotoxicity; also recorded: negligible hemolysis
- peroxidase activity of Aβ (1-42)-heme complex (Aβ (1-42)-heme complex): quenches its peroxidase activity
- growth of C. elegans (Caenorhabditis elegans): can block the growth; also recorded: blocks growth of the nematode C. elegans, arresting them in the L1 stage
- cell division inhibition (S. meliloti): leads to cell division inhibition; also recorded: more percentage of cells having 2 copies of genome
- production of GFP (ribosomal machinery): inhibition of production of GFP; also recorded: Fluorescence units decreased
